Several values for one entry are separate records, joined by “and”; a condition that tells them apart may be missing. Equal entries are not always repeated.
Legend:
[1] = tested on: Wolbachia pipientis; assay: Anti-Wolbachia Cell-Based Screen; format: functional; conditions: for IC50: Wolbachia pipientis
[2] = biological target: ClpP1P2 (Mycobacterium tuberculosis (strain ATCC 25618 / H37Rv), UniProt P9WPC3+P9WPC5); assay: in vitro assay to detect presence of AMC directly proportional to the activity of ClpP1P2. GHDDI collaboration.; format: functional
[3] = biological target: T1, Histidine--tRNA ligase (Leishmania infantum, UniProt A4I591); assay: Leishmania infantum Histidine tRNA synthetase (LdHisRS); format: functional
T1 sequence (A4I591 whole entry): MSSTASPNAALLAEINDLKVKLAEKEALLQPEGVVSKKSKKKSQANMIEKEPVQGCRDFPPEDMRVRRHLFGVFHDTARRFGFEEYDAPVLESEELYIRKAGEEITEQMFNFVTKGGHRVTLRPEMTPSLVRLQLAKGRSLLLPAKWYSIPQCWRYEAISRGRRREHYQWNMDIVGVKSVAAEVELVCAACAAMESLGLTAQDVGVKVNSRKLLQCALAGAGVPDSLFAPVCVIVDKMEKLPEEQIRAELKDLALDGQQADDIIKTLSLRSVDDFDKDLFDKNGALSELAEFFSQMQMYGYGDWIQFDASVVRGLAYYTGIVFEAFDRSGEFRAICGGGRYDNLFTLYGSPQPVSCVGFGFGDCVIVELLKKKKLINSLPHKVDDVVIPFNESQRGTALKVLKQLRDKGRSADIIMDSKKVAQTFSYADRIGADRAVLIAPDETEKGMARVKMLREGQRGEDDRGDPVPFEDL

[4] = biological target: T2, Coenzyme A biosynthesis bifunctional protein CoaBC (Mycobacterium tuberculosis (strain ATCC 25618 / H37Rv), UniProt P9WNZ1); assay: Biomol Green assay for MtCoaBC inhibitor, OD650 read; format: functional
T2 sequence (P9WNZ1 whole entry): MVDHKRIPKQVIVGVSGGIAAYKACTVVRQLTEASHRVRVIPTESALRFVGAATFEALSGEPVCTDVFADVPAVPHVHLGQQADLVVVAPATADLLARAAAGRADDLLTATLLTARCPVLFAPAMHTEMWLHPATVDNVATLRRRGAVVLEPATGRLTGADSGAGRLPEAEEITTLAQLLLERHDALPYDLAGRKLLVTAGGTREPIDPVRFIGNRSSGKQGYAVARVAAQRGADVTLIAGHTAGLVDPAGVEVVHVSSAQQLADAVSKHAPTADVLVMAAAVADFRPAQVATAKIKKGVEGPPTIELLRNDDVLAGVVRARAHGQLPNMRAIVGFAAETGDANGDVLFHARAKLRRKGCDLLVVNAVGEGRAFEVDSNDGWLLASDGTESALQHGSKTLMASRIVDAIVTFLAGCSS

[5] = biological target: Lysine--tRNA ligase (Plasmodium falciparum (isolate 3D7), UniProt Q8IDJ8); assay: Pf-KRS-1 (Lysyl-RNA Synthetase-1, KRS-1, cytosolic KRS) from Plasmodium falciparum. Inhibitor assay, 384 well plate, luminescence read.; format: functional
[6] = biological target: Polyketide synthase Pks13 (Mycobacterium tuberculosis (strain ATCC 25618 / H37Rv), UniProt I6X8D2); assay: Mycobacterium tuberculosis Polyketide synthase 13 Thioesterase (PKS13); format: functional
[7] = microbe, parasite or virus in culture; conditions: Mycobacterium tuberculosis, 72 h, read-out: pIC50 (converted)
[8] = microbe, parasite or virus in culture; conditions: Mycobacterium tuberculosis, 96 h, read-out: pIC50 (converted)

Lysine--tRNA ligase, sequence (Q8IDJ8 whole entry): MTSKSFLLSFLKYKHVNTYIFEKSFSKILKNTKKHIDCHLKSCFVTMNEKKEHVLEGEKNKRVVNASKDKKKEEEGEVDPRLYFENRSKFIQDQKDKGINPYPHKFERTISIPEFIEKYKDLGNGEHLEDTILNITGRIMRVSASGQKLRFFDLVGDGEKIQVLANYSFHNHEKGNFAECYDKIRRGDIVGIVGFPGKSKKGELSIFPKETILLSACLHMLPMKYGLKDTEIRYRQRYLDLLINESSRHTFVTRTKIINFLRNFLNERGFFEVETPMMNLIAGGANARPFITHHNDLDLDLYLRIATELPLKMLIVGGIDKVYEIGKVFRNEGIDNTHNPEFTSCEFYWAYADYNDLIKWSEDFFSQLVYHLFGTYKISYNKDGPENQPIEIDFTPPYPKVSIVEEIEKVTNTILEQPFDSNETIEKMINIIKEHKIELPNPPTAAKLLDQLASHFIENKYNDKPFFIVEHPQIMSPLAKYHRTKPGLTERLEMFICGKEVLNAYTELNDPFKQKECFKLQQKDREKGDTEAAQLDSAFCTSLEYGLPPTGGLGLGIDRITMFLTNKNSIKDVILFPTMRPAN
Polyketide synthase Pks13, sequence (I6X8D2 whole entry): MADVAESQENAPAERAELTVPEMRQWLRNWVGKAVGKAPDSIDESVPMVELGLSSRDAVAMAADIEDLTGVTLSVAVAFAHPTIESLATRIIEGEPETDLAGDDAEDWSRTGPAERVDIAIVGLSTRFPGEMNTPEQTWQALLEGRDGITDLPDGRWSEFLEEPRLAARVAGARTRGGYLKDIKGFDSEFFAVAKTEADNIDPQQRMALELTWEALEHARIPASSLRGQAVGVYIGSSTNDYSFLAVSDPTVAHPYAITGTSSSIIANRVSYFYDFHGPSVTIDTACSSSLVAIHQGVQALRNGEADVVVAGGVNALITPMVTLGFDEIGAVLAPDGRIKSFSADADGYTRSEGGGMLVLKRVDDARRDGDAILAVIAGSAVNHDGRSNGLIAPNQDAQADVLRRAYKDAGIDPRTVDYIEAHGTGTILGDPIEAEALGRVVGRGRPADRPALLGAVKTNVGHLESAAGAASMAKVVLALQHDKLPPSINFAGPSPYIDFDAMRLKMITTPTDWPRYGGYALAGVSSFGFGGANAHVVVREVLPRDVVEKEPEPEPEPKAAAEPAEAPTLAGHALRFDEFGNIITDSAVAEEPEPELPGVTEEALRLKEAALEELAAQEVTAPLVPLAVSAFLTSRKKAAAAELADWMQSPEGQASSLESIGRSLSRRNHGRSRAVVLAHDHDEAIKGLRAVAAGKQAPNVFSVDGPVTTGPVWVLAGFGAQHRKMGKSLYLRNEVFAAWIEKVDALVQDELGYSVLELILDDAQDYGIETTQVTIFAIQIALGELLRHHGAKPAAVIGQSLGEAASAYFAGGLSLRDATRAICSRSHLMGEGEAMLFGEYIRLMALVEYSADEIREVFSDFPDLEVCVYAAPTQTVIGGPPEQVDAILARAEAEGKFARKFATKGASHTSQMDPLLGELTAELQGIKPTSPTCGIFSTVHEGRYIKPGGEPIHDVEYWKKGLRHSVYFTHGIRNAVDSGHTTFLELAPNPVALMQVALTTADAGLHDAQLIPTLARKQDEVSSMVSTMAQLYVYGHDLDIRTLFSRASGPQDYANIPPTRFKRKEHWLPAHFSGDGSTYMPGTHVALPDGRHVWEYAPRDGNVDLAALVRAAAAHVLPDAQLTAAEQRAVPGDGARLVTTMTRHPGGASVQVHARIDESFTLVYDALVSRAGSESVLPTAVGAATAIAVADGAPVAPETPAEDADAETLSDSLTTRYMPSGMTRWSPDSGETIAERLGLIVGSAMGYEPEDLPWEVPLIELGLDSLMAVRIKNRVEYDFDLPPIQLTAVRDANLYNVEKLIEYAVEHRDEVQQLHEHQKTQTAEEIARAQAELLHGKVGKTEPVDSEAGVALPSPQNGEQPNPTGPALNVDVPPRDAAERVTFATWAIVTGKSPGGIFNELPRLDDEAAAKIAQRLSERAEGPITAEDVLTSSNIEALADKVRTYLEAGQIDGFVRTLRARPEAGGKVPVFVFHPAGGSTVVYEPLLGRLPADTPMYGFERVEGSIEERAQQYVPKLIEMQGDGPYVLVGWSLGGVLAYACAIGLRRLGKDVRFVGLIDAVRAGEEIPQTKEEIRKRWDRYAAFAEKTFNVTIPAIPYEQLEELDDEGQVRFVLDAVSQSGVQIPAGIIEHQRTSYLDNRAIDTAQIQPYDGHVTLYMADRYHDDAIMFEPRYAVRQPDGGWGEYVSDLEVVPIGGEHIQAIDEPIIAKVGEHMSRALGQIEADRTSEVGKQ
ClpP1P2, sequence (P9WPC5 whole entry): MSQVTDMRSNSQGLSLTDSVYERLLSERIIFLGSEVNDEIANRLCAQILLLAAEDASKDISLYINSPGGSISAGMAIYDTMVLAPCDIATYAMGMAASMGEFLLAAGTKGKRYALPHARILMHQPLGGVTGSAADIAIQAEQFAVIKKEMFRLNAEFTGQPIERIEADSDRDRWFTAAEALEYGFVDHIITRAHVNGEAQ
ClpP1P2, sequence (P9WPC3 whole entry): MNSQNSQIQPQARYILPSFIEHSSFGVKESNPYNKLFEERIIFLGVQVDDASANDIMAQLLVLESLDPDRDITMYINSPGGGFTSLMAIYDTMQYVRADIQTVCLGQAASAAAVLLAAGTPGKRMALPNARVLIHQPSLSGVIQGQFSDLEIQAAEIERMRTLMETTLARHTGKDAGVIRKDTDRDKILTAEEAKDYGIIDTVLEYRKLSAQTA

Structure (SMILES) | pIC50 [1] | IC50 [1] | other results
CCc1ccc(CN(C)Cc2nc(COc3ccccc3)no2)nc1 | 5.105 | 9.16 µM | –
Cc1ccc2[nH]c(CO[C@H]3CN(c4ccc(C#N)cn4)C[C@H]3F)nc2c1 | – | – | IC50 [2]: 7.25 µM; IC50 [3]: 27.1 µM and 37.7 µM; IC50 [4]: > 50.1 µM; IC50 [5]: > 50.1 µM; IC50 [6]: 26.6 µM
c1ccc(O[C@H]2COCCN(Cc3c[nH]c4ccccc34)C2)cc1 | 5.37 | 6.98 µM | –
COCC(=O)Nc1ccc(-c2noc([C@@H]3CCCN3C(C)C)n2)cn1 | 5.079 | 8.83 µM | –
CC(C)N1c2sc(-c3ccsc3)nc2CC1C(=O)NC1CCCC1 (stereo unspecified) | 5.095 | 7.14 µM | –
Cn1nccc1C(=O)N1CCCC2(CCN(c3ccsc3)C2=O)C1 (stereo unspecified) | – | > 10 µM | –
Cn1c(=O)n(C)c2cc(C3SCC(=O)Nc4ccsc43)ccc21 (stereo unspecified) | 5.481 | 2.44 µM | –
Cc1nn(C)c(C)c1CN(C)c1nc(C2CC2)nc2c(C)nn(C)c12 | 5.529 | 2.65 µM | –
CCOc1ccc2nc(NC(=O)c3c(C(=O)O)cnn3C)sc2c1 | 5.956 | 1.47 µM | –
CCc1c(C)nc2cc(-c3nccn3C)nn2c1N1CCCC(CO)C1 (stereo unspecified) | 5.187 | 5.95 µM | –
Cc1nc2cc(-c3nccn3C)nn2c(N2CCCC2)c1C | < 5 | 9.95 µM | –
CCC(CC)C(=O)N1CCCc2c(cnn2C)C1 | 5.338 | 5.15 µM | –
Cn1ccnc(Nc2ccc3c(c2)CCN3C(=O)c2ccoc2)c1=O | 5.166 and 5.523 | – | –
CCc1ncc2c(n1)CN(CC1CCCCO1)CC2 (stereo unspecified) | – | – | IC50 [5]: > 50.1 µM; IC50 [6]: > 100 µM
Cc1cc(N(Cc2cccs2)C2CC2)n2nc(C(F)(F)F)nc2n1 | 6.155 and 6.458 | – | –
Cc1ccc(F)c2c1N(C(=O)Cc1c(C)nn(C)c1C)CCC2 | 5.021 | 8.03 µM | –
CCCS(=O)(=O)NCc1ncc(C)c(OC)c1C | 5.88 | 1.37 µM | –
O=C(CNC(=O)c1ccc(Cl)cc1)Nc1nccs1 | 5.243 | 3.56 µM | –
CCOCCCC(=O)NCc1ccc(N2CCCCC2)cc1 | – | > 10 µM | –
COc1cc(CNC(=O)c2csc(Br)c2)ccn1 | 5.03 | 5.94 µM | –
Cc1csc(CCCNC(=O)NC2CC(=O)N(C(C)(C)C)C2)n1 (stereo unspecified) | – | > 10 µM | –
Cc1nc(N2CCC3(CCOC3)C2)c2cc[nH]c2n1 (stereo unspecified) | 5.537 | 2.38 µM | –
c1cc(CN2CCc3cncnc3C2)c2c(c1)OCCO2 | 5.26 | > 10 µM | –
O=C(Nc1ccnc(OC2CCOC2)c1)c1ccccc1Cl (stereo unspecified) | 5.461 and 5.05 | – | –
Cc1cc(NC(=O)c2ccccc2Br)n(C)n1 | – | > 10 µM | –

Structure (SMILES) | pIC50 [1] | IC50 [1] | other results
CSc1ccc(NCc2csc(C)n2)cc1F | 5.126 | 5.53 µM | –
Cc1ccccc1C1CN(c2cnn(C)c(=O)c2Cl)CCO1 (stereo unspecified) | 5.107 | 7.69 µM | –
CCn1c(CNC(=O)Nc2nc(C)c(C)o2)nc2ccccc21 | 5.724 | 1.91 µM | –
Cc1ncc(CN(C)Cn2nc(-c3ccccc3)oc2=O)s1 | 5.124 | 5 µM | –
Cc1cccc(N2CCN(C(=O)c3c(C)nn(C)c3C)CC2)c1C | 5.626 | 2.32 µM | –
COc1ccc(C(C#N)NC(=O)Cc2ccc(F)c(F)c2)c(OC)c1 (stereo unspecified) | 5.528 | 3 µM | –
O=C(Nc1ccccn1)NC(CCCO)c1ccccc1 (stereo unspecified) | < 5 | 6.17 µM | –
Cn1cc(NC(=O)c2cc[nH]n2)cc(Cl)c1=O | – | – | IC50 [7]: > 50.1 µM; IC50 [5]: > 50.1 µM; IC50 [8]: > 50.1 µM; IC50 [6]: > 100 µM
CC(=O)NC(C)c1ccc(OCC2CC2)c(F)c1 (stereo unspecified) | 5.914 | 1.47 µM | –
CC(C)[C@@H]1CN(C2CCN(Cc3ccccc3)CC2)C[C@H]1NS(C)(=O)=O | 5.381 | 3.75 µM | –
Cc1nn(C)c2nc(N(Cc3nccs3)C3CC3)sc12 | 5.592 | 2.9 µM | –
Cc1ccc(C(=O)N2CCC3(CC2)CN(CCN(C)C)C(=O)O3)c(F)c1 | 5.079 | > 10 µM | –
Cc1noc(-c2ccnc(Oc3ccc(CN4CCCC4)cc3C)c2)n1 | 5.704 and 5.368 | – | –
Fc1ccc(N2CCCN(Cc3ccc(-c4cc[nH]n4)o3)CC2)cc1 | 5.26 | 6.44 µM | –
c1ccc(-c2nnc(N3CCCC4(CCOC4)C3)s2)cc1 (stereo unspecified) | 5.105 | > 10 µM | –
Cc1nn(C)c2nc(N3CCCCC3c3cccnc3)sc12 (stereo unspecified) | 6.07 | 1.24 µM | –
CC(c1ccco1)N(C)Cc1cccc(C(=O)Nc2nccn2C)c1 (stereo unspecified) | 5.538 | 3.77 µM | –
CC(C)Cc1cc(C(=O)NCC2CCCN(Cc3ccco3)C2)on1 (stereo unspecified) | 5.687 | 1.41 µM | –
CCN(CC)C(=O)c1ccc(Cl)c(NC(=O)c2cc[nH]n2)c1 | 5.355 | 3.96 µM | –
Cc1nn(C)c2nc(N3CCCCC3c3ccc(F)cc3)sc12 (stereo unspecified) | 5.674 | 2.24 µM | –
COCc1noc(-c2ccc(N(C)Cc3ncccc3C)nc2)n1 | 5.66 | 3.11 µM | –
CCC(Nc1nc(C)nc2onc(C)c12)c1nc(C)c(C)s1 (stereo unspecified) | 5.592 | 2.54 µM | –
Cc1ccc(CSc2nc(N)cc(NCCC(=O)N3CCCC3)n2)cc1 | 5.181 | 4.89 µM | –
Cc1n[nH]c(C)c1CCC(=O)N(C)Cc1cn[nH]c1-c1ccc(F)cc1 | 5.21 | 5.81 µM | –
Cc1ccc(CSc2nc(N)cc(NCCS(=O)(=O)N(C)C)n2)cc1 | 5.214 | 4.21 µM | –

Structure (SMILES) | pIC50 [1] | IC50 [1] | other results
CCc1nc(C)sc1CN1CCc2[nH]nc(-c3ccc(F)c(F)c3)c2C1 | 5.065 | 4.91 µM | –
Cc1nn(C)c2nc(N3CCCCC3c3nccs3)sc12 (stereo unspecified) | 7.075 | 0.156 µM | –
Cc1cc(NCCCNc2cccnc2)n2nc(C)c(C)c2n1 | 5.158 | > 10 µM | –
Cc1nn(C)c2nc(N3CCCC3c3nccs3)sc12 (stereo unspecified) | 5.818 | 1.82 µM | –
Cc1cnc2c(C(=O)N3CCCC(OCc4ccccn4)C3)cnn2c1 (stereo unspecified) | – | – | IC50 [4]: > 30.2 µM; IC50 [6]: > 100 µM
CCc1cc(N(C)Cc2nonc2C)nc(N(C)C)n1 | 5.613 | 1.92 µM | –
Cc1c[nH]c(CN2CCOC(c3ccc(Cl)c(Cl)c3)C2)c(C)c1=O (stereo unspecified) | 5.368 | 3.83 µM | –
CCc1cc(N(C)Cc2cc[nH]n2)n2nc(C)c(C)c2n1 | 5.579 | 4.79 µM | –
FC(F)(F)c1nc(NC2CCCCC2)c2ccccc2n1 | 5.146 and 5.539 | – | –
COc1cnc(N2CC(N3CCOCC3)C2)nc1-c1ccnn1C | – | – | IC50 [2]: > 100 µM; IC50 [3]: 5.05 µM and 10.5 µM; IC50 [4]: > 50.1 µM; IC50 [6]: 52.6 µM and 31.8 µM
CCCOC(C)Cn1ccc2[nH]c(=O)c(C#N)cc2c1=O (stereo unspecified) | – | – | IC50 [2]: > 100 µM; IC50 [5]: > 50.1 µM; IC50 [6]: 28.5 µM and 11.6 µM
Cc1cc2nc(C(C)C)cc(NCC(c3ccccn3)N(C)C)n2n1 (stereo unspecified) | 5.809 | 1.75 µM | –
CCn1cc(NC(=O)c2cccc(CN3C[C@@H](C)O[C@@H](C)C3)c2)nn1 | < 5 | 8.23 µM | –
Cc1c[nH]c(CN2CCOC(c3ccc(Cl)cc3)C2)c(C)c1=O (stereo unspecified) | 5.539 | 2.63 µM | –
CC(C)c1cc(CSCCC(=O)O)no1 | 5.282 | 3.09 µM | –
CCOCCCn1c(NC(=O)c2cnc(C)cn2)nc2ccccc21 | 5.233 | 5.75 µM | –
COc1ccccc1N1CCC(CNS(=O)(=O)c2cccc(C#N)c2)C1 (stereo unspecified) | – | – | IC50 [4]: > 30.2 µM; IC50 [6]: 49.7 µM and > 100 µM
CCOc1cc(/C=C/c2ncc(C(=O)O)s2)cc(Br)c1O | – | – | IC50 [4]: > 30.2 µM; IC50 [6]: > 100 µM and 24.3 µM
Cc1nn(C)c(C)c1C1CCCN1Cc1nc2ccccc2o1 (stereo unspecified) | 5.128 | > 10 µM | –
c1cnn(CC2CCCN2c2ncnc3ccsc23)c1 (stereo unspecified) | 5.454 | 3.17 µM | –
CCOC(=O)c1sc2ccsc2c1CNC(=O)C(C)(C)C#N | 5.24 | 6.09 µM | –
Cc1ncc2c(n1)CN(CCCc1nc3ccccc3o1)CC2 | – | – | IC50 [5]: > 50.1 µM; IC50 [6]: > 100 µM
O=C(O)C(F)(F)F.O=C(O)c1c(-c2cccnc2)ncc2c1CCN(CC1CCOC1)C2 (stereo unspecified) | < 5 | 7.49 µM | –
Cc1nnc(N2CCCC3(CN(Cc4nccs4)CCO3)C2)o1 (stereo unspecified) | – | > 10 µM | –
